# Test results: patent publication US9708268B2, “ROR modulators and their uses” (INNOV17 LLC, priority 2012, dated 2017)
# Tests used:
# [1] = test system: IL-21; test: Real-time qRT-PCR gene expression in TH17 cells (IL-21); format: cell-based, human; design: key: A: No change in gene expression observed relative to DMSO treated TH17 cells; B: Decreased gene expression observed relative to DMSO treated TH17 cells; C: Increased gene expression observed relative to DMSO treated TH17 cells; settings: mRNA
# Description: (§1) Peripheral blood mononuclear cells (PBMCs) were sourced from freshly prepared leukocyte enriched plasma (buffy coat) from healthy volunteers from which PBMCs were isolated by density gradient centrifugation using Ficoll-Paque™ PLUS (GE Healthcare). Naïve CD4+ T cells were isolated using the Naïve CD4+ T cell Isolation Kit II (Miltenyi Biotec) as per manufacturer's instructions. CD4+ T cells were plated at 5×10^4 cells/well in 96 well plates pre-coated with immobilized human (h)-αCD3 antibody (eBioscience) then differentiated to TH17 cells using h-αCD28, h-αIFN-γ, h-αIL-4, h-IL-6, h-IL-23, […], h-TGF-β1 (eBioscience) and maintained in a cell culture incubator at 37° C. with 5% CO2 in TexMACS Medium (Miltenyi Biotec) supplemented with 1% Penicillin/Streptomycin (Lonza) over 5 days.
# (§2) RNA was isolated from TH17 cells and cDNA was synthesized using the Verso cDNA kit (Thermo Scientific) as per manufacturer's instructions. IL-17A, IL-17F, IL-21, IL-22, G-CSF, IL-23R and FOXP3 gene expression were determined for compound treated and untreated TH17 cell samples using Solaris qPCR Gene expression assays (Thermo Scientific) with an iCycler iQ Real-Time PCR Detection System (Bio-Rad). Individual gene expression was normalized to a panel of six reference genes (ACTB, TBP, HPRT1, PGK1, TFRC and PPIA) (Thermo Scientific) and analyzed by REST 2009 (Qiagen) in accordance to MIQE guidelines (Bustin, et al. (2009) Clin. Chem. 55, 611-622), which is hereby incorporated by reference in its entirety). The effects of compounds on TH17 cytokine mRNA levels are presented as fold change in gene expression of compound treated TH17 cells relative to DMSO treated cells in the table below.
# [2] = TH17 cell viability (Prestoblue); format: cell-based; design: concentration or dose not given beside the values; settings: human; percentage of DMSO treated cells; read-out: % viability of compound treated TH17 cells
# Description: as §1
# Cells were assayed for viability in the presence or absence of compound using Prestoblue® Cell Viability Reagent (Life Technologies) as per manufacturer's instructions after 30 minutes incubation of TH17 cells with reagent. Absorbance was measured at 570 nm and 600 nm using a microplate reader (Perkin Elmer) and data were analyzed as per manufacturer's instructions. Cell viability was expressed as a percentage of DMSO treated cells.
# [3] = test system: IL-17AF; test: TH17 cytokine inhibition as measured by ELISA (IL-17AF); format: cell-based; settings: 120 h; human CD4+ T cells differentiated to TH17 over 5 days, supernatant ELISA, vs DMSO
# Description: as §1
# (§3) Human CD4+ T cells were differentiated to TH17 cells as described in the presence or absence of various concentrations of compounds in a final concentration of 0.1% DMSO in TexMACS medium. Supernatants were collected and stored at −20° C. until they were to be assayed for IL-17A, IL-17F, IL-17AF, IL-21 and/or IL-22 levels as determined by Ready-Set-Go ELISA kits (eBioscience) as per manufacturer's instructions. Endpoint absorbance was read at 450 nm and 570 nm according to manufacturer's instructions (eBioscience) using a microplate reader (Perkin Elmer). The percentage of cytokine inhibition was calculated with reference to DMSO treated cells and the IC50s were determined by GraphPad Prism software and presented in the table below.
# [4] = test system: IL-22; test: TH17 cytokine inhibition as measured by ELISA (IL-22); format: cell-based; settings: 120 h; human CD4+ T cells differentiated to TH17 over 5 days, supernatant ELISA, vs DMSO
# Description: as §1, §3
# [5] = biological target: human RORγ LBD (Homo sapiens (Human), UniProt P51449); test: RORγ LBD binding (Human RORγ Assay System, INDIGO Biosciences)
# Description: Compound binding to the human RORγ LBD was assessed using the Human RORγ Assay System (INDIGO Biosciences Inc.) as per manufacturer's instructions.
# [6] = test system: IL-17F; test: Real-time qRT-PCR gene expression in TH17 cells (IL-17F); format: cell-based, human; design: key: A: No change in gene expression observed relative to DMSO treated TH17 cells; B: Decreased gene expression observed relative to DMSO treated TH17 cells; C: Increased gene expression observed relative to DMSO treated TH17 cells; settings: mRNA
# Description: as §1, §2
# [7] = test system: IL-17A; test: TH17 cytokine inhibition as measured by ELISA (IL-17A); format: cell-based; settings: 120 h; human CD4+ T cells differentiated to TH17 over 5 days, supernatant ELISA, vs DMSO
# Description: as §1, §3
# [8] = test system: IL-22; test: Real-time qRT-PCR gene expression in TH17 cells (IL-22); format: cell-based, human; design: key: A: No change in gene expression observed relative to DMSO treated TH17 cells; B: Decreased gene expression observed relative to DMSO treated TH17 cells; C: Increased gene expression observed relative to DMSO treated TH17 cells; settings: mRNA
# Description: as §1, §2
# [9] = test system: IL-23R; test: Real-time qRT-PCR gene expression in TH17 cells (IL-23R); format: cell-based, human; design: key: A: No change in gene expression observed relative to DMSO treated TH17 cells; B: Decreased gene expression observed relative to DMSO treated TH17 cells; C: Increased gene expression observed relative to DMSO treated TH17 cells; settings: mRNA
# Description: as §1, §2
# [10] = test system: IL-17A; test: Real-time qRT-PCR gene expression in TH17 cells (IL-17A); format: cell-based, human; design: key: A: No change in gene expression observed relative to DMSO treated TH17 cells; B: Decreased gene expression observed relative to DMSO treated TH17 cells; C: Increased gene expression observed relative to DMSO treated TH17 cells; settings: mRNA
# Description: as §1, §2
# [11] = test system: TH17 cells; test: TH17 cellular proliferation (Prestoblue); format: cell-based, human; settings: 3 μM compound, after 5 day TH17 differentiation, relative to DMSO treated cells
# Description: as §1
# Cellular proliferation was assessed in the presence or absence of 3 μM compound using Prestoblue® Cell Viability Reagent (Life Technologies) as per manufacturer's instructions using absorbance as the output measured by a microplate reader (Perkin Elmer) after 30 minutes of incubation of cells and reagent. A standard curve developed by plotting varying cell numbers versus absorbance was used to assess differences in cellular proliferation between compound treated or untreated cells after the 5 day TH17 differentiation period.
# [12] = test system: IL-17F; test: TH17 cytokine inhibition as measured by ELISA (IL-17F); format: cell-based; settings: 120 h; human CD4+ T cells differentiated to TH17 over 5 days, supernatant ELISA, vs DMSO
# Description: as §1, §3
# [13] = test system: FOXP3; test: Real-time qRT-PCR gene expression in TH17 cells (FOXP3); format: cell-based, human; design: key: A: No change in gene expression observed relative to DMSO treated TH17 cells; B: Decreased gene expression observed relative to DMSO treated TH17 cells; C: Increased gene expression observed relative to DMSO treated TH17 cells; settings: mRNA
# Description: as §1, §2
# Sequence of human RORγ LBD (P51449 269-508): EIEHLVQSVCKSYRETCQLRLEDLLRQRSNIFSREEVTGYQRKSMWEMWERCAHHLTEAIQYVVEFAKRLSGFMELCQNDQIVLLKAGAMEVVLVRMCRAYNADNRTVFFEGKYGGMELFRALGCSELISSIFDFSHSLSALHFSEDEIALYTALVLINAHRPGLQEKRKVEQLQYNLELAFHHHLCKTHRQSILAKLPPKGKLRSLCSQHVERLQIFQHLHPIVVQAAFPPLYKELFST
SMILES,"Change in gene expression of compound treated TH17 cells relative to DMSO treated cells, IL-21 [1]",viability [2] [%],IC50 [3] [µM],IC50 [4] [µM],IC50 [5] [µM],"Change in gene expression of compound treated TH17 cells relative to DMSO treated cells, IL-17F [6]",IC50 [7] [µM],"Change in gene expression of compound treated TH17 cells relative to DMSO treated cells, IL-22 [8]","Change in gene expression of compound treated TH17 cells relative to DMSO treated cells, IL-23R [9]","Change in gene expression of compound treated TH17 cells relative to DMSO treated cells, IL-17A [10]",% change in TH17 cell number [11],IC50 [12] [µM],"Change in gene expression of compound treated TH17 cells relative to DMSO treated cells, FOXP3 [13]"
"CNC(=O)c1ccc2c(c1)CCCN2Cc1ccc(C(O)(C(F)(F)F)C(F)(F)F)cc1 [Example 3, 1-(4-(1,1,1,3,3,3-hexafluoro-2-hydroxypropan-2-yl)benzyl)-N-methyl-1,2,3,4-tetrahydroquinoline-6-carboxamide]",A,> 80,< 10,< 10,< 10,A,< 10,A,A,A,B (≦50% decrease in cell proliferation relative to DMSO treated TH17 cells),< 10,A
"CN(C)C(=O)c1ccc2c(c1)CCCN2Cc1ccc(C(O)(C(F)(F)F)C(F)(F)F)cc1 [Example 4, 1-(4-(1,1,1,3,3,3-hexafluoro-2-hydroxypropan-2-yl)benzyl)-N,N-dimethyl-1,2,3,4-tetrahydroquinoline-6-carboxamide]",A,> 80,< 10,< 10,< 10,A,< 10,A,A,A,B (≦50% decrease in cell proliferation relative to DMSO treated TH17 cells),< 10,A
